pIC50: −log10 of the molar value.
Molecular target: T1, GR (Homo sapiens, UniProt P04150)
T1 construct: expressed in transfected cells; host or cells: CHO-K1
T1 sequence (P04150 1-777): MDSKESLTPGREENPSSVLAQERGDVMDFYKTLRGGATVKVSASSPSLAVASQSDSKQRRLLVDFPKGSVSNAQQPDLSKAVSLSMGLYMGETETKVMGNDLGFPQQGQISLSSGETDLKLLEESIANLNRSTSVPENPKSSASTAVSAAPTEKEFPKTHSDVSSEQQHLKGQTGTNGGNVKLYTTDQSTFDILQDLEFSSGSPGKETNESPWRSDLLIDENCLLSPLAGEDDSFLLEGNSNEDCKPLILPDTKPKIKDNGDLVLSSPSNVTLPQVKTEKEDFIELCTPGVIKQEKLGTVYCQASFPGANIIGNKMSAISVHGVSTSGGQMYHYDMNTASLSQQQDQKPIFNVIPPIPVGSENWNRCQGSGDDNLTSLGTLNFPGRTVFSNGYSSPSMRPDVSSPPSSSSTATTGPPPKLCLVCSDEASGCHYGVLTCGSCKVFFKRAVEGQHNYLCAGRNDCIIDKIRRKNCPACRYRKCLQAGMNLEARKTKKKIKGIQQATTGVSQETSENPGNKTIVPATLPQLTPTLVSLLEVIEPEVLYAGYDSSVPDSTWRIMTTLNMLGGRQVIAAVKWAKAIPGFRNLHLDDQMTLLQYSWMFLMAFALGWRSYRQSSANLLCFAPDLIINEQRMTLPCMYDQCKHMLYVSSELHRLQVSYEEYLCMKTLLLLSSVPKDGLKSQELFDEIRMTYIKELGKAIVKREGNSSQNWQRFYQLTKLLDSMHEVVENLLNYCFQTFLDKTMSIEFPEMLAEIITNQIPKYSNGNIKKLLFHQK
Assay: In Vitro GR Luciferase Reporter Assay (antagonist mode, CHO-K1-GR-MMTV-Luc reporter cells)
Type: cell-based
Settings: antagonist mode, 10 nM Dexamethasone
How it was run: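 CHO-K1-GR-MMTV-Luc cells in phenol red-free DMEM with 10% CSS, stimulated with 10 nM dexamethasone (final) and treated with 8-point 1:5 compound dilutions for about 18-24 h at 37° C. Luciferase measured by OneGlo luminescence; IC50 derived for inhibition of GR activity.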

Row | pIC50 | Compound
1 | ≥ 7.00 | O=C(c1ccccn1)[C@]12Cc3cnn(-c4ccc(F)cc4)c3C=C1CC[C@](F)(S(=O)(=O)c1ccccc1)C2 [Example 125, ((4aS,6S)-6-fluoro-1-(4-fluorophenyl)-6-(phenylsulfonyl)-1,4,5,6,7,8-hexahydro-4aH-benzo[f]indazol-4a-yl)(pyridin-2-yl)methanone]
2 | ≥ 7.00 | CCn1ncc(S(=O)(=O)N(C)[C@H]2CCC3=Cc4c(cnn4-c4ccc(F)cc4)C[C@]3(C(=O)c3cc(C(F)(F)F)ccn3)C2)n1 [Example 126, 2-ethyl-N-((4aS,6S)-1-(4-fluorophenyl)-4a-(4-(trifluoromethyl)picolinoyl)-4,4a,5,6,7,8-hexahydro-1H-benzo[f]indazol-6-yl)-N-methyl-2H-1,2,3-triazole-4-sulfonamide]
3 | ≥ 7.00 | CCN([C@H]1CCC2=Cc3c(cnn3-c3ccc(F)cc3)C[C@]2(C(=O)c2nccs2)C1)S(=O)(=O)c1ccc(Cl)cc1 [Example 127, 4-chloro-N-ethyl-N-((4aS,6S)-1-(4-fluorophenyl)-4a-(thiazole-2-carbonyl)-4,4a,5,6,7,8-hexahydro-1H-benzo[f]indazol-6-yl)benzenesulfonamide]
4 | ≥ 7.00 | CCN([C@H]1CCC2=Cc3c(cnn3-c3ccc(F)cc3)C[C@]2(C(=O)c2nccs2)C1)S(=O)(=O)c1ccc(F)cc1 [Example 128, N-ethyl-4-fluoro-N-((4aS,6S)-1-(4-fluorophenyl)-4a-(thiazole-2-carbonyl)-4,4a,5,6,7,8-hexahydro-1H-benzo[f]indazol-6-yl)benzenesulfonamide]
5 | ≥ 7.00 | CCn1ncc(S(=O)(=O)N(C)[C@H]2CCC3=Cc4c(cnn4-c4ccc(F)cc4)C[C@]3(C(=O)c3ccc(C(F)(F)F)cn3)C2)n1 [Example 129, 2-ethyl-N-((4aS,6S)-1-(4-fluorophenyl)-4a-(5-(trifluoromethyl)picolinoyl)-4,4a,5,6,7,8-hexahydro-1H-benzo[f]indazol-6-yl)-N-methyl-2H-1,2,3-triazole-4-sulfonamide]
6 | ≥ 7.00 | CCn1ncc(S(=O)(=O)N(C)[C@H]2CCC3=Cc4c(cnn4-c4ccc(F)cc4)C[C@]3(C(=O)c3ccc(C4CC4)cn3)C2)n1 [Example 130, N-((4aS,6S)-4a-(5-cyclopropylpicolinoyl)-1-(4-fluorophenyl)-4,4a,5,6,7,8-hexahydro-1H-benzo[f]indazol-6-yl)-2-ethyl-N-methyl-2H-1,2,3-triazole-4-sulfonamide]
7 | ≥ 7.00 | CCN([C@H]1CCC2=Cc3c(cnn3-c3ccc(F)cc3)C[C@]2(C(=O)c2cc(C(F)(F)F)ccn2)C1)S(=O)(=O)c1cnn(CC)c1 [Example 132, N,1-diethyl-N-((4aS,6S)-1-(4-fluorophenyl)-4a-(4-(trifluoromethyl)picolinoyl)-4,4a,5,6,7,8-hexahydro-1H-benzo[f]indazol-6-yl)-1H-pyrazole-4-sulfonamide]
8 | ≥ 7.00 | CN([C@H]1CCC2=Cc3c(cnn3-c3ccc(F)cc3)C[C@]2(C(=O)c2nccs2)C1)S(=O)(=O)c1cnn(C)c1 [Example 133, N-((4aS,6S)-1-(4-fluorophenyl)-4a-(thiazole-2-carbonyl)-4,4a,5,6,7,8-hexahydro-1H-benzo[f]indazol-6-yl)-N,1-dimethyl-1H-pyrazole-4-sulfonamide]
9 | ≥ 7.00 | CN([C@H]1CCC2=Cc3c(cnn3-c3ccc(F)cc3)C[C@]2(C(=O)c2ccc(C3CC3)cn2)C1)S(=O)(=O)c1ccn(C)n1 [Example 135, N-((4aS,6S)-4a-(5-cyclopropylpicolinoyl)-1-(4-fluorophenyl)-4,4a,5,6,7,8-hexahydro-1H-benzo[f]indazol-6-yl)-N,1-dimethyl-1H-pyrazole-3-sulfonamide]
10 | ≥ 7.00 | CCN([C@H]1CCC2=Cc3c(cnn3-c3ccc(F)cc3)C[C@]2(C(=O)c2ccc(C3CC3)cn2)C1)S(=O)(=O)c1cnn(C)c1 [Example 136, N-((4aS,6S)-4a-(5-cyclopropylpicolinoyl)-1-(4-fluorophenyl)-4,4a,5,6,7,8-hexahydro-1H-benzo[f]indazol-6-yl)-N-ethyl-1-methyl-1H-pyrazole-4-sulfonamide]
11 | ≥ 7.00 | CN(c1ccc(F)cc1)S(=O)(=O)[C@H]1CCC2=Cc3c(cnn3-c3ccc(F)cc3)C[C@]2(C(=O)c2ccccn2)C1 [Example 137, (4aS,6S)-N,1-bis(4-fluorophenyl)-N-methyl-4a-picolinoyl-4,4a,5,6,7,8-hexahydro-1H-benzo[f]indazole-6-sulfonamide]
12 | ≥ 7.00 | CN([C@H]1CCC2=Cc3c(cnn3-c3ccc(F)cc3)C[C@]2(C(=O)c2nccs2)C1)S(=O)(=O)c1ccn(C)n1 [Example 139, N-((4aS,6S)-1-(4-fluorophenyl)-4a-(thiazole-2-carbonyl)-4,4a,5,6,7,8-hexahydro-1H-benzo[f]indazol-6-yl)-N,1-dimethyl-1H-pyrazole-3-sulfonamide]
13 | ≥ 7.00 | Cn1cc(S(=O)(=O)N(C2CC2)[C@H]2CCC3=Cc4c(cnn4-c4ccc(F)cc4)C[C@]3(C(=O)c3ccc(C4CC4)cn3)C2)cn1 [Example 141, N-cyclopropyl-N-((4aS,6S)-4a-(5-cyclopropylpicolinoyl)-1-(4-fluorophenyl)-4,4a,5,6,7,8-hexahydro-1H-benzo[f]indazol-6-yl)-1-methyl-1H-pyrazole-4-sulfonamide]
14 | ≥ 7.00 | CN([C@H]1CCC2=Cc3c(cnn3-c3ccc(F)cc3)C[C@]2(C(=O)c2nccs2)C1)S(=O)(=O)c1ccc(Cl)cc1 [Example 143, 4-chloro-N-((4aS,6S)-1-(4-fluorophenyl)-4a-(thiazole-2-carbonyl)-4,4a,5,6,7,8-hexahydro-1H-benzo[f]indazol-6-yl)-N-methylbenzenesulfonamide]
15 | ≥ 7.00 | CCN([C@H]1CCC2=Cc3c(cnn3-c3ccc(F)cc3)C[C@]2(C(=O)c2cc(C(F)(F)F)ccn2)C1)S(=O)(=O)c1cnn(C)n1 [Example 145, N-ethyl-N-((4aS,6S)-1-(4-fluorophenyl)-4a-(4-(trifluoromethyl)picolinoyl)-4,4a,5,6,7,8-hexahydro-1H-benzo[f]indazol-6-yl)-2-methyl-2H-1,2,3-triazole-4-sulfonamide]
16 | ≥ 7.00 | CN([C@H]1CCC2=Cc3c(cnn3-c3ccc(F)cc3)C[C@]2(C(=O)c2ccc(C3CC3)cn2)C1)S(=O)(=O)c1ccc(Cl)cc1 [Example 146, 4-chloro-N-((4aS,6S)-4a-(5-cyclopropylpicolinoyl)-1-(4-fluorophenyl)-4,4a,5,6,7,8-hexahydro-1H-benzo[f]indazol-6-yl)-N-methylbenzenesulfonamide]
17 | ≥ 7.00 | Cn1ccc(S(=O)(=O)N(C2CC2)[C@H]2CCC3=Cc4c(cnn4-c4ccc(F)cc4)C[C@]3(C(=O)c3nccs3)C2)n1 [Example 147, N-cyclopropyl-N-((4aS,6S)-1-(4-fluorophenyl)-4a-(thiazole-2-carbonyl)-4,4a,5,6,7,8-hexahydro-1H-benzo[f]indazol-6-yl)-1-methyl-1H-pyrazole-3-sulfonamide]
18 | ≥ 7.00 | CN([C@H]1CCC2=Cc3c(cnn3-c3ccc(F)cc3)C[C@]2(C(=O)c2ncc(C3CC3)s2)C1)S(=O)(=O)c1cnn(C)n1 [Example 148, N-((4aS,6S)-4a-(5-cyclopropylthiazole-2-carbonyl)-1-(4-fluorophenyl)-4,4a,5,6,7,8-hexahydro-1H-benzo[f]indazol-6-yl)-N,2-dimethyl-2H-1,2,3-triazole-4-sulfonamide]
19 | ≥ 7.00 | CN([C@H]1CCC2=Cc3c(cnn3-c3ccc(F)cc3)C[C@]2(C(=O)c2cc(C3CC3)ccn2)C1)S(=O)(=O)c1cnn(C)n1 [Example 149, N-((4aS,6S)-4a-(4-cyclopropylpicolinoyl)-1-(4-fluorophenyl)-4,4a,5,6,7,8-hexahydro-1H-benzo[f]indazol-6-yl)-N,2-dimethyl-2H-1,2,3-triazole-4-sulfonamide]
20 | ≥ 7.00 | CN([C@H]1CCC2=Cc3c(cnn3-c3ccc(F)cc3)C[C@]2(C(=O)c2nc(C3CC3)cs2)C1)S(=O)(=O)c1cnn(C)n1 [Example 150, N-((4aS,6S)-4a-(4-cyclopropylthiazole-2-carbonyl)-1-(4-fluorophenyl)-4,4a,5,6,7,8-hexahydro-1H-benzo[f]indazol-6-yl)-N,2-dimethyl-2H-1,2,3-triazole-4-sulfonamide]
21 | ≥ 7.00 | CN([C@H]1CCC2=Cc3c(cnn3-c3ccc(F)cc3)C[C@]2(C(=O)c2ncc(C(F)(F)F)s2)C1)S(=O)(=O)c1cnn(C)n1 [Example 151, N-((4aS,6S)-1-(4-fluorophenyl)-4a-(5-(trifluoromethyl)thiazole-2-carbonyl)-4,4a,5,6,7,8-hexahydro-1H-benzo[f]indazol-6-yl)-N,2-dimethyl-2H-1,2,3-triazole-4-sulfonamide]
22 | ≥ 7.00 | Cn1ccc(S(=O)(=O)N(C2CC2)[C@H]2CCC3=Cc4c(cnn4-c4ccc(F)cc4)C[C@]3(C(=O)c3ccc(C4CC4)cn3)C2)n1 [Example 152, N-cyclopropyl-N-((4aS,6S)-4a-(5-cyclopropylpicolinoyl)-1-(4-fluorophenyl)-4,4a,5,6,7,8-hexahydro-1H-benzo[f]indazol-6-yl)-1-methyl-1H-pyrazole-3-sulfonamide]
